Experimental data: patent US20260374766A1, “METHODS FOR TREATING CANCER” (Antares Therapeutics, Inc., priority 2022, published 2026)

Key:
H1299 p53 Y220C = experiment: Cell Proliferation Assay (CellTiter-Glo, CTG), H1299 p53 Y220C (NClH1299-inducible p53 Y220C); type: cell-based; settings: Homo sapiens, NCI-H1299, 120 h, NClH1299-inducible p53 Y220C cells, 5 days, CellTiter-Glo
Procedure: (§1) Inducible p53 Y220C and R273H constructs (Tet-One inducible expression system; Takara) were stably expressed in NClH1299 cells by lentiviral transduction. NUGC3, A549, BxPC3, T3M4, HuH7, HCC2935, MFE296, NClH1299, NClH1299-inducible p53 Y220C, and NClH1299-inducible p53 R273H cell lines were used for cell proliferation assay. 250-500 cells were seeded in each well of 384 plate and then compounds were dispensed into each well using Echo or Tecan. After 5 days of incubation, equal volume of CellTiter-Glo reagent (G7570; Promega) was added into each well and the plate was incubated at room temperature for 10 minutes with shaking. The luminescent signal was measured by PheraStar microplate reader and IC50 was calculated.

[1] = target: T1, p53 Y220C mutant protein (amino acid residues 94-293) (Homo sapiens, UniProt P04637, Y220C); experiment: Surface Plasmon Resonance (SPR) assay, Kd_kinetic; type: binding; settings: SPR; p53 Y220C; read-out: SPR P53 Y220C KD kinetic
T1 construct: p53 Y220C mutant protein (amino acid residues 94-293)
T1 sequence (P04637 94-293, stated change not applied): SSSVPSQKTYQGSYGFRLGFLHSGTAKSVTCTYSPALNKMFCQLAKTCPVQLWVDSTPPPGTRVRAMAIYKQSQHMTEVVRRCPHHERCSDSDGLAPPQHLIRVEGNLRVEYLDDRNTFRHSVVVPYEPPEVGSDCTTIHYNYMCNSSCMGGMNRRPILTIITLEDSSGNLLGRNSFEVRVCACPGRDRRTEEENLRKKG
Procedure: Surface Plasmon Resonance (SPR) Assay Protocol
SPR experiments were performed on a Biacore 8K instrument. […] The running buffer contained 50 mM Tris, pH 7.5, 100 mM NaCl, 1 mM DTT, 0.01% Brij35, 0.05% Tween-20 and 1% DMSO. The assay temperature was maintained at 16 or 20 °C and data were fit into the 1:1 binding model using the Biacore Insight Evaluation software.

p53 Y220C = p53 Y220C (Homo sapiens, UniProt P04637, Y220C); experiment: Luciferase Reporter Assay (Luc), p53 response element, NClH1299 cells with inducible p53 Y220C; type: cell-based; settings: luciferase reporter, NClH1299 inducible p53 Y220C, 6 hour; for AC50: read-out: Luc P53 Y220C AC50
Procedure: Luciferase Reporter Assay Protocol
The cells were then used for p53 reporter assay. 5,000 cells were seeded in each well of 384 plate and cultured in 0.5 ug/mL doxycycline (D3072; Sigma) containing medium for 24 hours before compound treatment. After 6 hour of compound treatment, equal volume of One-Glo reagent (E6110; Promega) was added to each well and the plate was incubated for 5 minutes with shaking at room temperature. The luciferase activity was immediately measured with PheraStar microplate reader.

H1299 p53 R273H = experiment: Cell Proliferation Assay (CellTiter-Glo, CTG), H1299 p53 R273H (NClH1299-inducible p53 R273H); type: cell-based; settings: Homo sapiens, NCI-H1299, 120 h, NClH1299-inducible p53 R273H cells, 5 days, CellTiter-Glo
Procedure: as §1

NUGC3 p53 Y220C = experiment: Cell Proliferation Assay (CellTiter-Glo, CTG), NUGC3 p53 Y220C; type: cell-based; settings: Homo sapiens, NUGC-3, 120 h, NUGC3 cells, 5 days, CellTiter-Glo
Procedure: as §1

Row | Structure (SMILES) | IC50 (H1299 p53 Y220C) | Kd [1] | AC50 (p53 Y220C) | Emax (p53 Y220C) | IC50 (H1299 p53 R273H) | IC50 (NUGC3 p53 Y220C)
1 | COc1ccc(C(N)=O)cc1NCC#Cc1nn2c(N[C@@H]3CCN(C)C[C@@H]3F)cccc2c1SC(F)(F)F [Example 232] | < 750 nM | < 10 nM | < 750 nM | 80 to 90% | ≥ 10000 nM | < 750 nM
2 | COc1ccc(C(N)=O)nc1NCC#Cc1nn2c(N[C@@H]3CCN(C)C[C@@H]3F)cccc2c1SC(F)(F)F [Example 235] | 750 to 1500 nM | < 10 nM | 750 to 1500 nM | 80 to 90% | ≥ 10000 nM | 1500 to 3000 nM
3 | CNC(=O)c1ccc(OC)c(NCC#Cc2nc3c(NC4COC4)cccn3c2SC(F)(F)F)c1 [Example 240] | < 750 nM | < 10 nM | < 750 nM | > 90% | 8000 to 10000 nM | < 750 nM
4 | CNC(=O)c1ccc(OC)c(NCC#Cc2nc3c(N[C@H]4[C@H]5CC[C@@H]4NC5)cccn3c2SC(F)(F)F)c1 [Example 244] | 1500 to 3000 nM | < 10 nM | > 3000 nM | 80 to 90% | ≥ 10000 nM | 750 to 1500 nM
5 | CNC(=O)c1ccc(OC)c(NCC#Cc2nc3c(N[C@@H]4[C@@H]5CC[C@H]4NC5)cccn3c2SC(F)(F)F)c1 [Example 247] | 1500 to 3000 nM | < 10 nM | 1500 to 3000 nM | 70 to 80% | 8000 to 10000 nM | 750 to 1500 nM
6 | CNC(=O)c1ccc(OC)c(NCC#Cc2nc3c(N[C@H]4C[C@@H]5CC[C@H]4N5C)cccn3c2SC(F)(F)F)c1 [Example 248] | 750 to 1500 nM | < 10 nM | 750 to 1500 nM | 70 to 80% | 5000 to 8000 nM | 750 to 1500 nM
7 | CNC(=O)c1ccc(OC)c(NCC#Cc2nc3c(N[C@@H]4C[C@@H]5CC[C@H]4N5C)cccn3c2SC(F)(F)F)c1 [Example 249] | 750 to 1500 nM | < 10 nM | 750 to 1500 nM | < 70% | 5000 to 8000 nM | 750 to 1500 nM
8 | CNC(=O)c1cc(NCC#Cc2nc3c(N[C@@H]4CCN(C)C[C@@H]4F)cccn3c2SC(F)(F)F)c(OC)nn1 [Example 259] | < 750 nM | < 10 nM | < 750 nM | > 90% | ≥ 10000 nM | < 750 nM
9 | CNC(=O)c1ccc(OC)c(NCC#Cc2nc3c(N[C@@H]4CN(C)C[C@@H]4F)cccn3c2CC(F)(F)F)n1 [Example 262] | < 750 nM | < 10 nM | 750 to 1500 nM | 70 to 80% | ≥ 10000 nM | 750 to 1500 nM
10 | CNC(=O)c1ccc(OC)c(NCC#Cc2nc3c(N[C@@H]4CNC[C@@H]4F)cccn3c2CC(F)(F)F)n1 [Example 263] | 1500 to 3000 nM | < 10 nM | > 3000 nM | 70 to 80% | ≥ 10000 nM | 750 to 1500 nM
11 | CNC(=O)c1cnc(OC)c(NCC#Cc2nc3c(N[C@H]4C[C@@H]5CC[C@H]([C@H]4F)N5C)cccn3c2SC(F)(F)F)c1 [Example 266] | < 750 nM | < 10 nM | < 750 nM | 70 to 80% | ≥ 10000 nM | < 750 nM
12 | CNC(=O)c1cnc(OC)c(NCC#Cc2nc3c(N[C@H]4C[C@@H]5CC[C@@H](N5)[C@H]4F)cccn3c2SC(F)(F)F)c1 [Example 267] | < 750 nM | < 10 nM | < 750 nM | 70 to 80% | ≥ 10000 nM | < 750 nM
13 | CNC(=O)c1ccc(NCC#Cc2nn3c(N[C@@H]4CCNC[C@@H]4F)cccc3c2SC(F)(F)F)c(OC)c1 [Example 272] | < 750 nM | < 10 nM | < 750 nM | 80 to 90% | 5000 to 8000 nM | 750 to 1500 nM
